This is an account of results in PubChem BioAssay AID236 (DTP/NCI, 2004).

This assay concerns AK4 lymphoid leukemia ip, C3AKF1 mice, survival. Put plainly: NCI In Vivo Anticancer Drug Screen. Data for tumor model AK4 Lymphoid Leukemia (intraperitoneal) in C3AKF1 (CHKRF1) mice. To be noted: endpoint: median survival time, higher = longer survival. On the procedure: The antitumor activity of compounds was measured in mice bearing transplantable tumors. Survival or tumor size were measured and the results are expressed as the measurement made in the treated group (T) divided by the measurement made in the vehicle treated control group (C). The tumor model used in this assay is AK4 Lymphoid Leukemia (intraperitoneal) in C3AKF1 (CHKRF1) mice

The mark [1] stands for this setting: dose: 2.0 mg/kg/injection, schedule: Q01DX010 (ip), vehicle: saline.
[2] abbreviates: dose: 4.0 mg/kg/injection, schedule: Q01DX010 (ip), vehicle: saline.
Setting [3] is: dose: 125.0 mg/kg/injection, schedule: Q01DX010 (ip), vehicle: saline.
The mark [4] stands for this setting: dose: 250.0 mg/kg/injection, schedule: Q01DX010 (ip), vehicle: saline.
Where [5] appears, read: dose: 500.0 mg/kg/injection, schedule: Q01DX010 (ip), vehicle: saline.
The mark [6] stands for this setting: dose: 7.5 mg/kg/injection, schedule: Q01DX010 (ip), vehicle: saline.
The mark [7] stands for this setting: dose: 15.0 mg/kg/injection, schedule: Q01DX010 (ip), vehicle: saline.
The mark [8] stands for this setting: dose: 30.0 mg/kg/injection, schedule: Q01DX010 (ip), vehicle: saline.
The mark [9] stands for this setting: dose: 60.0 mg/kg/injection, schedule: Q01DX010 (ip), vehicle: saline.
The mark [10] stands for this setting: dose: 12.0 mg/kg/injection, schedule: Q01DX010 (ip), vehicle: saline.
The mark [11] stands for this setting: dose: 62.5 mg/kg/injection, schedule: Q01DX010 (ip), vehicle: saline.
The mark [12] stands for this setting: dose: 1.5 mg/kg/injection, schedule: Q01DX010 (ip), vehicle: saline.
Setting [13] is: dose: 3.0 mg/kg/injection, schedule: Q01DX010 (ip), vehicle: saline.
Where [14] appears, read: dose: 6.0 mg/kg/injection, schedule: Q01DX010 (ip), vehicle: saline.

Where “and” joins values, the source holds several entries; their conditions need not be identical. Equal values may be shown once. Inconclusive results and toxic doses are left out.

With `O[C@H](CN1CC1)[C@@H](O)CN1CC1`, the T/C is 164 % of control (dose: 250.0 micrograms/kg/injection, schedule: Q01DX010 (ip), vehicle: saline) and 105 % of control (dose: 1000.0 micrograms/kg/injection, schedule: Q01DX010 (ip), vehicle: saline).
With `O=C(Nc1ccc(NC2=NCCN2)cc1)c1ccc(C(=O)Nc2ccc(NC3=NCCN3)cc2)cc1`, the T/C is 95 % of control and 105 % of control under setting [1]; 90 % of control and 110 % of control under setting [2]; 110 % of control (dose: 8.0 mg/kg/injection, schedule: Q01DX010 (ip), vehicle: saline); 150 % of control (dose: 16.0 mg/kg/injection, schedule: Q01DX010 (ip), vehicle: saline).
In the case of `Cc1n[nH]c(=O)[nH]c1=O`, the T/C reads like this: under setting [3], 87 % of control; under setting [4], 100 % of control; under setting [5], 87 % of control; (dose: 1000.0 mg/kg/injection, schedule: Q01DX010 (ip), vehicle: saline) 87 % of control.
On to `CN(Cc1cnc2nc(N)nc(N)c2n1)c1ccc(C(=O)N[C@@H](CCC(=O)O)C(=O)O)cc1`, for which the T/C is 120 % of control (dose: 0.19 mg/kg/injection, schedule: Q01DX Z (ip), vehicle: saline); 155 % of control and 181 % of control (dose: 0.38 mg/kg/injection, schedule: Q01DX010 (ip), vehicle: other); 180 % of control (dose: 0.38 mg/kg/injection, schedule: Q01DX Z (ip), vehicle: saline); 160 % of control and 181 % of control (dose: 0.75 mg/kg/injection, schedule: Q01DX010 (ip), vehicle: other); 253 % of control and 361 % of control (dose: 0.75 mg/kg/injection, schedule: Q01DX Z (ip), vehicle: saline); 185 % of control and 256 % of control (dose: 1.5 mg/kg/injection, schedule: Q01DX010 (ip), vehicle: other). For the same compound, for the setting “dose: 3.0 mg/kg/injection, schedule: Q01DX010 (ip), vehicle: other”, the T/C is 175 % of control.
`NC(Cc1c[nH]c2ccc(N(CCCl)CCCl)cc12)C(=O)O` (configuration not stated): the T/C reads like this: under setting [1], 156 % of control; under setting [2], 175 % of control.
`Clc1ncnc2nc[nH]c12`: the T/C runs as follows: under setting [6], 100 % of control and 87 % of control; under setting [7], 100 % of control and 114 % of control; under setting [8], 100 % of control and 87 % of control; under setting [9], 87 % of control and 100 % of control.
Consider `C[n+]1c2ccccc2nc2c(N)cc(N)cc21`, for which the T/C runs as follows: under setting [10], 106 % of control; (dose: 18.0 mg/kg/injection, schedule: Q01DX010 (ip), vehicle: saline) 106 % of control; (dose: 27.0 mg/kg/injection, schedule: Q01DX010 (ip), vehicle: saline) 100 % of control.
Consider `O=P1(N(CCCl)CCCl)NCCCO1` (configuration not stated), for which the T/C reads like this: (dose: 11.3 mg/kg/injection, schedule: Q01DX010 (ip), vehicle: saline) 175 % of control; (dose: 11.3 mg/kg/injection, schedule: Q01DX Z (ip), vehicle: saline) 180 % of control and 189 % of control; (dose: 22.5 mg/kg/injection, schedule: Q01DX010 (ip), vehicle: saline) 170 % of control and 187 % of control; (dose: 22.5 mg/kg/injection, schedule: Q01DX Z (ip), vehicle: saline) 202 % of control and 210 % of control; (dose: 45.0 mg/kg/injection, schedule: Q01DX010 (ip), vehicle: saline) 220 % of control and 375 % of control; (dose: 45.0 mg/kg/injection, schedule: Q01DX Z (ip), vehicle: saline) 196 % of control and 204 % of control. The T/C (dose: 90.0 mg/kg/injection, schedule: Q01DX010 (ip), vehicle: saline) was 105 % of control and 225 % of control; the T/C (dose: 90.0 mg/kg/injection, schedule: Q01DX Z (ip), vehicle: saline) is 151 % of control and 168 % of control; the T/C (dose: 180.0 mg/kg/injection, schedule: Q01DX010 (ip), vehicle: saline) is 105 % of control and 118 % of control; the T/C (dose: 180.0 mg/kg/injection, schedule: Q01DX Z (ip), vehicle: saline) was 113 % of control and 120 % of control.
As for `C1CN1c1nc(N2CC2)nc(N2CC2)n1`, the T/C was 116 % of control (dose: 0.25 mg/kg/injection, schedule: Q01DX010 (ip), vehicle: saline); 150 % of control (dose: 0.5 mg/kg/injection, schedule: Q01DX010 (ip), vehicle: saline); 111 % of control (dose: 1.0 mg/kg/injection, schedule: Q01DX010 (ip), vehicle: saline).
With `COc1ccc2c(c1OC)C(=O)O[C@@H]2[C@H]1c2c(cc3c(c2OC)OCO3)CCN1C`, the T/C is 100 % of control (dose: 0.9 mg/kg/injection, schedule: Q01DX010 (ip), vehicle: saline); 87 % of control (dose: 1.9 mg/kg/injection, schedule: Q01DX010 (ip), vehicle: saline); 87 % of control (dose: 3.9 mg/kg/injection, schedule: Q01DX010 (ip), vehicle: saline); 111 % of control and 87 % of control (dose: 7.8 mg/kg/injection, schedule: Q01DX010 (ip), vehicle: saline); 100 % of control (dose: 15.6 mg/kg/injection, schedule: Q01DX010 (ip), vehicle: saline); 100 % of control (dose: 31.3 mg/kg/injection, schedule: Q01DX010 (ip), vehicle: saline). Besides, the T/C was 94 % of control under setting [11], 88 % of control under setting [3] and 88 % of control under setting [4].
Consider `CN(C)[C@@H]1C(=O)C(C(N)=O)=C(O)[C@@]2(O)C(=O)C3=C(O)c4c(O)cccc4C[C@H]3C[C@@H]12`, for which the T/C was 100 % of control under setting [6]; 100 % of control and 105 % of control under setting [7]; 100 % of control under setting [8]; 94 % of control under setting [9].
As for `O=CN(O)CC(=O)O`, the T/C under setting [11] was 100 % of control and the T/C under setting [5] is 90 % of control.
In the case of `O=C(O)CCCc1ccc(N(CCCl)CCCl)cc1`, the T/C is 100 % of control (dose: 3.13 mg/kg/injection, schedule: Q01DX010 (ip), vehicle: saline); 113 % of control and 120 % of control (dose: 6.25 mg/kg/injection, schedule: Q01DX010 (ip), vehicle: saline); 95 % of control (dose: 12.5 mg/kg/injection, schedule: Q01DX010 (ip), vehicle: saline).
`N=C(N)c1ccc(Nc2ccc(C(=N)N)cc2)cc1`: the T/C runs as follows: under setting [12], 88 % of control; under setting [13], 88 % of control and 122 % of control; under setting [14], 94 % of control and 105 % of control; under setting [10], 94 % of control and 111 % of control.
With `CN(C)c1ccc(/C=C\c2ccnc3ccccc23)cc1`, the T/C by setting is: under setting [12], 100 % of control; under setting [13], 100 % of control; under setting [14], 100 % of control; under setting [10], 100 % of control.
For the compound `CC(=O)O[C@]1(C(C)=O)CC[C@H]2[C@@H]3C[C@H](C)C4=CC(=O)C=C[C@]4(C)[C@@]3(F)[C@@H](O)C[C@@]21C`, the T/C is, setting by setting: (dose: 12.5 mg/kg/injection, schedule: Q01DX010 (sc), vehicle: steriod suspending solution) 100 % of control; (dose: 25.0 mg/kg/injection, schedule: Q01DX010 (sc), vehicle: steriod suspending solution) 100 % of control; (dose: 50.0 mg/kg/injection, schedule: Q01DX010 (sc), vehicle: steriod suspending solution) 111 % of control; (dose: 100.0 mg/kg/injection, schedule: Q01DX010 (sc), vehicle: steriod suspending solution) 88 % of control and 100 % of control.
Consider `Nc1nc(=S)c2[nH]cnc2[nH]1`, for which the T/C (dose: 1.25 mg/kg/injection, schedule: Q01DX010 (ip), vehicle: other) was 100 % of control and 114 % of control; the T/C (dose: 2.5 mg/kg/injection, schedule: Q01DX010 (ip), vehicle: other) is 93 % of control and 114 % of control; the T/C (dose: 5.0 mg/kg/injection, schedule: Q01DX010 (ip), vehicle: other) was 112 % of control; the T/C (dose: 10.0 mg/kg/injection, schedule: Q01DX010 (ip), vehicle: other) is 106 % of control.
Take `CC(=O)Nc1ccc2nc3ccc(NC(C)=O)cc3[n+](-c3ccccc3)c2c1`: the T/C is, setting by setting: (dose: 50.0 mg/kg/injection, schedule: Q01DX010 (ip), vehicle: saline) 117 % of control; (dose: 100.0 mg/kg/injection, schedule: Q01DX010 (ip), vehicle: saline) 105 % of control; (dose: 200.0 mg/kg/injection, schedule: Q01DX010 (ip), vehicle: saline) 117 % of control; (dose: 400.0 mg/kg/injection, schedule: Q01DX010 (ip), vehicle: saline) 105 % of control.
